Results from EP0358766A1, “METHOD OF STERILIZING PLANT ANTHERS” (VSESOJUZNY NAUCHNO-ISSLEDOVATELSKY INST. SELSKOKHOZYAISTV. …, priority 1988, dated 1989).

What was measured:
Format in all cases: in vivo
Sonnenblume Linie BK 119 = assay: Field test of pollen sterilisation, sunflower line BK 119
From the text: (§1) Die gametozide Aktivität der erfindungsgemäßen Sterilisationsmittel war in Feldversuchen in verschiedenen bodenklimatischen Zonen mit Teilstücken von 10 m^2 Größe in dreibis viermaliger Wiederholung festgestellt. Jedes Sterilisationsmittel wurde mindenstens 5 Jahre lang geprüft.
(§2) Die Entwicklung der Perioden der Organogenese wird zytologisch überwacht. Die Behandlung von Pflanzen mit dem Sterilisationsmittel erfolgt am Anfang der fünften Periode der Organogenese nach Kupermann.
Zur Kontrolle der chemischen Sterilisation des Sonnenblumenpollens werden für jede Verbindung 45 behandelte Pflanzen je Wiederholung benutzt, wobei 15 Pflanzen zwecks Selbstbestäubung des Blütenkörbchens isoliert werden, 15 Pflanzen mit einem Pollengemisch, gesammelt von 20 bis 25 behandelten isolierten Körbchen, bestäubt werden, und 15 Pflanzen für freie Bestäubung gelassen werden, damit das Ansetzen von Achänen mit dem Pollen der Vaterform kontrolliert worden kann.
Man beurteilt die Pollensterilität von Pflanzen der Sonnenblume nach der Pollenfertilität und -keimfähigkeit, nach den morphologischen Besonderheiten von Spermien und nach der Fähigkeit von Achänen […] bei der Bestäubung der behandelten isolierten Pflanzen mit dem Pollen der unbehandelten väterlichen Form. Die Lebensfähigkeit der Eizelle wird nach der Samenbildung bei behandelten Pflanzen bei freier Bestäubung der väterlichen Form bestimmt.
Pflanzen der Sonnenblume Linie BK 119 werden mit einer 0,2%igen wäßrigen Emulsion von 1,1,3-Tribrompropan bzw. 1,2-Dibrompropan behandelt. Die Emulsion enthält 0,5 Masse% C12-C14 Natriumalkylbenzolsulfonat und 0,01 Masse% Dimethylformamid als Adjuvans. Der Verbrauch an Präparat beträgt 1,2 kg/ha bei 600 1 Wasserdurchsatz. Die Prüfergebnisse sind in der Tabelle 17 angegeben. Die gleichen Ergebnisse sind bei der Behandlung von Sonnenblume Linie BK in der VI. Periode der Organogenese erhalten.
Man verführt analog den Beispielen 88-89. Als Sterilisationsmittel dient eine 0,1%ige wäßrige Emulsion von 1,2--Dibrom-3-chlorpropan. Der Verbrauch an Präparat beträgt 0,6 kg/ha bei 600 1 Wasserdurchsatz. Die Prüfergebnisse sind in der Tabelle 17 angegeben.

[1] = test system: tetraploidem Roggen Belta; assay: Field test of gametocidal activity, tetraploid rye Belta; conditions: period V, 1% aqueous emulsion, 6 kg/ha in 600 l water; for Prozentsatz des Ansetzens von Samen bei freier Bestäubung: control = 100
From the text: as §1, §2
(§3) Mit dem Ährenschieben verwirklicht man die Isolierung von Hauptähren und anderen Stockwerken in Pergametbeuteln. Bei Weizen und Tritikale werden Einzelisolatoren benutzt. Bei Roggen schließt man je 1 Ähre von […] verschiedenen nebeneinander befindlichen Pflanzen unter einen gemeinsamen Isolator ein. Bei Hirse wird jede Rispe getrennt isoliert. Der Sterilitätsprozentsatz (X) für Weizen, Roggen, Tritikale und Hirse wird nach der Formel [formula] ermittelt.
(§4) Die Kornzahl in nicht isolierten Ähren von Kontrollpflanzen wird bedingt für 100 % Ansetzen bei freier Bestäubung angenommen.
(§5) Um zuverlässige Angaben zu erhalten, verwendet man 20 bis 25 Isolatoren je Wiederholung für Weizen und Tritikale, 10 bis 15 Isolatoren jeder Wiederholung für Roggen und Hirse.
Pflanzen von tetraploidem Roggen Belta werden in der V.Periode der Organogenese (nach Kupermann) mit einer 1%igen wäßrigen Emulsion von 1,1,3-Tribrompropan, 1,1,3--Tribrom-4-chlorbutan, 1,1,2,3-Tetrabrompropan, 1,2,3-Tribrompropan, 1,1,3-Tribrom-3-chlorpropan bzw. 1,2-Dibrom--3-chlorpropan behandelt.
Die Emulsion enthält 0,5 Masse% C12-C14-Kalziumalk^yl-benzolsulfonat und 0,01 Masse% Dimethylsulfoxid. Der Verbrauch an Präparat beträgt 6 kg/ha bei 600 1 Wasserdurchsatz.Die Prüfergebnisse sind in der Tabelle 7 angegeben. Die gleichen Ergebnisse sind bei der Behandlung von tetraploidem Roggen Belta in der VI. Periode der Organogenese erhalten.

[2] = test system: tetraploidem Roggen Jubileinaya; assay: Field test of gametocidal activity, tetraploid rye Jubileinaya; conditions: period V, 1% aqueous emulsion, 8 kg/ha in 800 l water; for Prozentsatz des Ansetzens Samen bei freier Bestäubung: control = 100
From the text: as §1, §2, §3, §4, §5
(§6) Pflanzen von tetraploidem Roggen Jubileinaya werden in der V. Periode der Organogenese mit einer 1%igen wäßrigen Emulsion von 1,2,3-Tribrompropan, 1,2-Dibrompropan bzw. 1,2-Dibrom-3-chlorpropan behandelt. Die Emulsion enthält 0,5 Masse% C12-C14-Kalziumalkylbenzolsulfonat und 0,01 Masse% Dodezylsulfat. Der Verbrauch an Präparat beträgt 8 kg/ha bei 800 1 Wasserdurchsatz. Die Prüfergebnisse sind in der Tabelle 9 angegeben. Die gleichen Ergebnisse sind bei der Behandlung von tetraploidem Roggen Jubileinaya in der VI. Periode der Organogenese erhalten.

[3] = test system: tetraploidem Roggen Gibrid 67; assay: Field test of gametocidal activity, tetraploid rye Gibrid 67; conditions: period V, 1% aqueous emulsion, 10 kg/ha; for Prozentsatz des Ansetzens von Samen bei freier Bestäubung: control = 100
From the text: as §1, §2, §3, §4, §5
as §6, with “Gibrid 67” for “Jubileinaya”, “V.Periode” for “V. Periode”, “l%igen” for “1%igen”, “Dimethylsulfoxid.” for “Dodezylsulfat.”, “10 kg/ha.” for “8 kg/ha bei 800 1 Wasserdurchsatz.”, “10” for “9”

[4] = test system: tetraploidem Roggen Ukrainskaya tetra; assay: Field test of gametocidal activity, tetraploid rye Ukrainskaya tetra; conditions: period V, 1% aqueous emulsion, 6 kg/ha in 600 l water; for Prozentsatz des Ansetzens von Samen bei freier Bestäubung: control = 100
From the text: as §1, §2, §3, §4, §5
Pflanzen von tetraploidem Roggen Ukrainskaya tetra werden in der V.Periode der Organogenese (nach Kupermann) mit einer 1%igen wäßrigen Emulsion von 1,2,3-Tribrompropan, 1,2-Dibrompropan bzw. 1,2-Dibrom-3-chlorpropan behandelt. Die Emulsion enthält 0,5 Masse% C12-C14-Kalzium- alkylbenzolsulfonat und 0,01 Masse% Tetrahydrofuran. Der Verbrauch an Präparat beträgt 6 kg/ha bei 600 1 Wasserdurchsatz. Als Kontrolle dienen Pflanzen, behandelt mit dem Verdünner ohne Sterilisationsmittel. Die Prüfergebnisse sind in der Tabelle 8 angegeben. Die gleichen Ergebnisse sind bei der Behandlung von tetraploidem Roggen Ukrainskaya in der VI. Periode der Organogenese erhalten.

Tritikale PRAG-109 = assay: Field test of gametocidal activity, triticale PRAG-109; conditions: period V, 1% aqueous emulsion, 6 kg/ha in 600 l water; for Prozentsatz des Ansetzens von Samen bei freier Bestäubung: control = 100
From the text: as §1, §2, §3, §4, §5
Pflanzen von Tritikale PRAG-109 werden in der V.Periode der Organogenese (nach Kupermann) mit einer 1%igen wäßrigen Emulsion von 1,1,1,3-Tetrabromheptan, 1,1,3-Tribromheptan, 1,2,3-Tribrompropan bzw. 1,2-Dibrom-3-chlor- propan behandelt. Die Emulsion enthält 0,5 Masse% C12-C14--Kalziumalkylbenzolsulfonat und 0,01 Masse% Dodezylsulfat. Der Verbrauch an Präparat beträgt 6 kg/ha bei 600 1 Wasserdurchsatz. Als Kontrolle dienen Pflanzen, behandelt mit dem Verdünner ohne Sterilisationsmittel. Die Prüfergebnisse sind in der Tabelle 5 angegeben. Die gleichen Ergebnisse sind bei der Behandlung von Tritikale PRAG-109 in der VI. Periode der Organogenese erhalten.

[5] = 0.2% aqueous emulsion, 1.2 kg/ha in 600 l water
[6] = 0.1% aqueous emulsion, 0.6 kg/ha in 600 l water

Row | Structure (SMILES) | Kornzahl der Ähre bei freier Bestäubung [1] | Kornzahl der Ähre im Isolator [1] | Prozentsatz der Sterilität [1] | Prozentsatz des Ansetzens von Samen bei freier Bestäubung [1] | Kornzahl der Ähre bei freier Bestäubung [2] | Kornzahl der Ähre unter Isolator [2] | Prozentsatz der Sterilität [2] | Prozentsatz des Ansetzens Samen bei freier Bestäubung [2] | Kornzahl der Ähre bei freier Bestäubung [3] | Kornzahl der Ähre im Isolator [3] | Prozentsatz der Sterilität [3] | Prozentsatz des Ansetzens von Samen bei freier Bestäubung [3] | Kornzahl der Ähre bei freier Bestäubung [4] | Kornzahl der Ähre unter Isolator [4] | Prozentsatz der Sterilität [4] | Prozentsatz des Ansetzens von Samen bei freier Bestäubung [4] | Kornzahl der Ähre bei freier Bestäubung (Tritikale PRAG-109) | Kornzahl der Ähre im Isolator (Tritikale PRAG-109) | Prozentsatz der Sterilität (Tritikale PRAG-109) | Prozentsatz des Ansetzens von Samen bei freier Bestäubung (Tritikale PRAG-109) | other results
1 | BrCCC(Br)Br [Beispiel 1, 1,1,3-Tribrompropan] | 34,5 | 1,2 | 97,0% | 78,1% |  |  |  |  |  |  |  |  |  |  |  |  |  |  |  |  | Ansetzen bei freier Bestäubung in % (Sonnenblume Linie BK 119; [5]): 80,4%; Ansetzen im Isolator bei Pollengemischbestäubung in % (Sonnenblume Linie BK 119; [5]): 0,0%; Pollenstesterilität in % (Sonnenblume Linie BK 119; [5]): 100,0%
2 | CC(Br)CBr (stereo not shown) [Beispiel 5, 1,2-Dibrompropan] |  |  |  |  | 48,1 | 0,0 | 100,0% | 91,2% | 42,7 | 0,2 | 99,5% | 86,3% | 47,5 | 0,3 | 99,4% | 92,1% |  |  |  |  | Ansetzen bei freier Bestäubung in % (Sonnenblume Linie BK 119; [5]): 88,2%; Ansetzen im Isolator bei Pollengemischbestäubung in % (Sonnenblume Linie BK 119; [5]): 0,0%; Pollenstesterilität in % (Sonnenblume Linie BK 119; [5]): 100,0%
3 | BrCC(Br)CBr [Beispiel 4, 1,2,3-Tribrompropan] | 42,0 | 0,0 | 100,0% | 95,0% | 47,6 | 0,1 | 99,8% | 90,3% | 40,6 | 0,6 | 98,6% | 82,0% | 48,6 | 0,0 | 100,0% | 94,2% | 40,5 | 0,2 | 99,5% | 88,4% | 
4 | CCCCC(Br)CC(Br)Br (stereo not shown) [Beispiel 10, 1,1,3-Tribromheptan] |  |  |  |  |  |  |  |  |  |  |  |  |  |  |  |  | 59,6 | 0,0 | 100,0% | 86,4% | 
5 | ClCC(Br)CBr (stereo not shown) [Beispiel 7, 1,2-Dibrom-3-chlorpropan] | 37,4 | 0,0 | 100,0% | 84,6% | 50,2 | 0,4 | 99,2% | 95,2% | 45,2 | 0,0 | 100,0% | 91,3% | 45,8 | 0,6 | 98,8% | 88,7% | 42,6 | 1,1 | 97,3% | 93,0% | Ansetzen bei freier Bestäubung in % (Sonnenblume Linie BK 119; [6]): 82,0%; Ansetzen im Isolator bei Pollengemischbestäubung in % (Sonnenblume Linie BK 119; [6]): 0,0%; Pollenstesterilität in % (Sonnenblume Linie BK 119; [6]): 100,0%
6 | CCCCC(Br)CC(Br)(Br)Br (stereo not shown) [Beispiel 9, 1,1,1,3-Tetrabromheptan] |  |  |  |  |  |  |  |  |  |  |  |  |  |  |  |  | 61,8 | 0,0 | 100,0% | 89,6% | 
